Source: PMC4818591 (ChemMedChem, 2015)
Read-outs that look alike come from different tables or passages of the source.

Assays:
Type in all cases: biochemical
HDAC10 = biological target: T1, HDAC10 (Homo sapiens, UniProt Q969S8); test: HDAC10 isozyme inhibition; details: for SI HDAC10/6: selectivity index
T1 sequence (Q969S8 1-669): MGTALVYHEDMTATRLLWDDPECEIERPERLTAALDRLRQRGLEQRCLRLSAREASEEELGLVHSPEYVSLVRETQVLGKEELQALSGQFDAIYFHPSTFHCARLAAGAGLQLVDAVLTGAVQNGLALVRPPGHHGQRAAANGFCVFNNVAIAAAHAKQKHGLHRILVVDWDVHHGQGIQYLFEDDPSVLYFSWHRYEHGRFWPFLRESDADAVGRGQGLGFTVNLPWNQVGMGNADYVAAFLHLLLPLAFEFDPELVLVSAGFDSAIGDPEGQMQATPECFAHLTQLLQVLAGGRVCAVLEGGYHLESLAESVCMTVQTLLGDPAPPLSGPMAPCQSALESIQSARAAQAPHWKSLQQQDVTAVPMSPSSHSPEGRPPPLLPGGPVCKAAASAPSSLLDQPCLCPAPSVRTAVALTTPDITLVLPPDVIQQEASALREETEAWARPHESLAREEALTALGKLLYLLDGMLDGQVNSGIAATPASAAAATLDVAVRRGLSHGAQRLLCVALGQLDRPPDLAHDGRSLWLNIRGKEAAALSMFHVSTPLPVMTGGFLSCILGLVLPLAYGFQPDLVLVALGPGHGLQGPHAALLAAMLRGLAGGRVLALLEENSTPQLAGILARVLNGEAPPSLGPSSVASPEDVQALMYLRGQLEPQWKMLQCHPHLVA

HDAC3 = HDAC3 (Homo sapiens, UniProt O15379); test: HDAC3 isozyme inhibition; details: for SI HDAC3/6: selectivity index
HDAC1 = HDAC1 (Homo sapiens, UniProt Q13547); test: HDAC1 isozyme inhibition; details: for SI HDAC1/6: selectivity index
HDAC2 = HDAC2 (Homo sapiens, UniProt Q92769); test: HDAC2 isozyme inhibition; details: for SI HDAC2/6: selectivity index
HDAC6 = biological target: T2, HDAC6 (Homo sapiens, UniProt Q9UBN7); test: HDAC6 isozyme inhibition; details: for selectivity over HDAC1 and HDAC3: HDAC6 versus HDAC1 and HDAC3; for selectivity over HDAC2 and HDAC10: HDAC6 versus HDAC2 and HDAC10
T2 sequence (Q9UBN7 1-1215): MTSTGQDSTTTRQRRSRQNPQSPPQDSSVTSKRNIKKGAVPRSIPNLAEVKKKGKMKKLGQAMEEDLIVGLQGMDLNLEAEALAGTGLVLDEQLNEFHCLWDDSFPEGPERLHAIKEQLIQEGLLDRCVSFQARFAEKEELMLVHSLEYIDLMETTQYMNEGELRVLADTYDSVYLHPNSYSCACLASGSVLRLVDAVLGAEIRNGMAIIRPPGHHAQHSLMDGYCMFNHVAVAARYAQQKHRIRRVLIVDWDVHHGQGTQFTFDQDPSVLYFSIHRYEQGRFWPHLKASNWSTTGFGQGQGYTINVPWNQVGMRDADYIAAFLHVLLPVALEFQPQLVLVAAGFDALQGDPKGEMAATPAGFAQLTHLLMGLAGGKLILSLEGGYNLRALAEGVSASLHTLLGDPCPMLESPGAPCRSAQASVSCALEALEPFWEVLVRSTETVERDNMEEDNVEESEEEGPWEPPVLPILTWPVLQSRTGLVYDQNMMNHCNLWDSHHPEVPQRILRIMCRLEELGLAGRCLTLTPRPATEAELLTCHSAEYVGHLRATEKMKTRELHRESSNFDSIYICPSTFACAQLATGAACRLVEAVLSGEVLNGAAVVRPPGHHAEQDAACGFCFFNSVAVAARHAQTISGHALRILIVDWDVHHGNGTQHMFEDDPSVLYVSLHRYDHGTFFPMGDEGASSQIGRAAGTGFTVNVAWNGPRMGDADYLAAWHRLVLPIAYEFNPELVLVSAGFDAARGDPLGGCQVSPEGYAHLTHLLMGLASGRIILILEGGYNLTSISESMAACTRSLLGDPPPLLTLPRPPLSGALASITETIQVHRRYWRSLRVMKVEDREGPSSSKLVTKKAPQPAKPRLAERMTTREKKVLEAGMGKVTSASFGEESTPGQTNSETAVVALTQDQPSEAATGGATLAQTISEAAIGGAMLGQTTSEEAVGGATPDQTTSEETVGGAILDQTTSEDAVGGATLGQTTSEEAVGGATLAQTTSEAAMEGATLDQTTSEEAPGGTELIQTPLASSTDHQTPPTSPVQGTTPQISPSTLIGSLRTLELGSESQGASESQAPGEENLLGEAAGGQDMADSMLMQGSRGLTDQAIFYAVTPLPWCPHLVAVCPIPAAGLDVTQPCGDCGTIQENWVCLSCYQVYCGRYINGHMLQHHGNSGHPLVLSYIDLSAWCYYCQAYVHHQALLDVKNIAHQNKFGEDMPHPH

[1] = read-out: HDAC Isoform, IC50, Class II, 10, singlet, 10-dose IC50 mode, 3-fold serial dilution starting at 30 μM, >50000 = no inhibition at 50 μM
[2] = read-out: HDAC Isoform, IC50, Class I, 2, singlet, 10-dose IC50 mode, 3-fold serial dilution starting at 30 μM, >50000 = no inhibition at 50 μM
[3] = read-out: HDAC Isoform, IC50, Class I, 3, singlet, 10-dose IC50 mode, 3-fold serial dilution starting at 30 μM, >50000 = no inhibition at 50 μM
[4] = read-out: HDAC Isoform, IC50, Class I, 1, singlet, 10-dose IC50 mode, 3-fold serial dilution starting at 30 μM, >50000 = no inhibition at 50 μM
[5] = read-out: HDAC Isoform, IC50, Class II, 6, duplicate, 10-dose IC50 mode, 3-fold serial dilution starting at 30 μM, average ± standard deviation

Chain of HDAC2 (Q92769 whole entry): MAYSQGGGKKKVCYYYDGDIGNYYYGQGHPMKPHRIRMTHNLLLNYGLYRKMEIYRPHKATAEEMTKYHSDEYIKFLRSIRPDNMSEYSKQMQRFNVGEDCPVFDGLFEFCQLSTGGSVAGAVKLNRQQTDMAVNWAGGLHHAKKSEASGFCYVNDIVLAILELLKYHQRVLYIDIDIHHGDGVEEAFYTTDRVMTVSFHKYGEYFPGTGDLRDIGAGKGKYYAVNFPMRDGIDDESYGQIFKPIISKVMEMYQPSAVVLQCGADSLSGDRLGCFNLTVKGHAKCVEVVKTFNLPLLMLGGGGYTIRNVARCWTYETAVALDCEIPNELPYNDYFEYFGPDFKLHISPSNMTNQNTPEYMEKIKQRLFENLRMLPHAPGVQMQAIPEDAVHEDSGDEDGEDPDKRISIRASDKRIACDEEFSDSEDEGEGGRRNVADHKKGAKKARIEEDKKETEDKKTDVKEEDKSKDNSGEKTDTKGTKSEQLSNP
Chain of HDAC3 (O15379 whole entry): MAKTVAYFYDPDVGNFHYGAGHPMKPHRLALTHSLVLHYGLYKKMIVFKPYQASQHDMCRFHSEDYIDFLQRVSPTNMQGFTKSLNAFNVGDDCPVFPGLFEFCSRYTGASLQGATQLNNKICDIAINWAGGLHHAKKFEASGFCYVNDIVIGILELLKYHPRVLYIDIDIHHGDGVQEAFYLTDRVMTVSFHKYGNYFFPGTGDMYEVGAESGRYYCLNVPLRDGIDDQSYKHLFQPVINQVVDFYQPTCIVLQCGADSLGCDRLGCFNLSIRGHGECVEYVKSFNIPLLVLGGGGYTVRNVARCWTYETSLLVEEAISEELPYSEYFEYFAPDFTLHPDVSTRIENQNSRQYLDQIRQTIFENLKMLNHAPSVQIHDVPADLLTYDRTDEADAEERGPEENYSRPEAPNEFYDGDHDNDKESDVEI
Chain of HDAC3 (Q9Y618 395-489 partner limits assumed): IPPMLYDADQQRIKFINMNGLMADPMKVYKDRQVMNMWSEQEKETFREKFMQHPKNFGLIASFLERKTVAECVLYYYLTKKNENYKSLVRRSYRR
Chain of HDAC1 (Q13547 whole entry): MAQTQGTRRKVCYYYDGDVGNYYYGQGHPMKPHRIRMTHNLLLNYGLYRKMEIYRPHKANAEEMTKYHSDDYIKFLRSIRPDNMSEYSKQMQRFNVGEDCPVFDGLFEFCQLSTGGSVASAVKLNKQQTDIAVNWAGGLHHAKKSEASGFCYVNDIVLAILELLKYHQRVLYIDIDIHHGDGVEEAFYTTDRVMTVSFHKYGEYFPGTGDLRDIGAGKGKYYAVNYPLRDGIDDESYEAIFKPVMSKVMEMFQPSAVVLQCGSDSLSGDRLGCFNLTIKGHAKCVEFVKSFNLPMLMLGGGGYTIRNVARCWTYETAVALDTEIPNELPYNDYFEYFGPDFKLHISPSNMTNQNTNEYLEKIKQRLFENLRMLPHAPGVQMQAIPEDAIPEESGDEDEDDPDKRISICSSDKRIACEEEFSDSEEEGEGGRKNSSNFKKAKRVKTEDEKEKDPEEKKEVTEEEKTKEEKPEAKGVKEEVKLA

| Compound | SI HDAC10/6 (HDAC10) | SI HDAC3/6 (HDAC3) | SI HDAC1/6 (HDAC1) | SI HDAC2/6 (HDAC2) | other results |
| --- | --- | --- | --- | --- | --- |
| O=C(Nc1cccc(-c2cc(C(=O)NCCc3cc(C(=O)NO)no3)no2)c1)c1ccccc1 [Compound 12, 5-[3-(Benzoylamino)phenyl]-N-[2-[3-(N-hydroxycarbamoyl)isoxazol-5-yl]ethyl]isoxazole-3-carboxamide] | 1050 | 1600 | 666 | 2360 | – |
| CC(C)(C)OC(=O)Nc1ccc(-c2csc(NC(=O)CCCc3cc(C(=O)NO)no3)n2)cc1 [Compound 3, N-[4-[2-[4-[3-(N-Hydroxycarbamoyl)isoxazol-5-yl]butyrylamino]thiazol-4-yl]phenyl]carbamic Acid tert-Butyl Ester] | – | 11 | 10 | 28 | – |
| CCOC(=O)Nc1ccc(-c2cc(C(=O)NCCc3cc(C(=O)NO)no3)no2)cc1 [Compound 8, N-[4-[3-[N-[2-[3-(N-Hydroxycarbamoyl)isoxazol-5-yl]ethyl]carbamoyl]isoxazol-5-yl]phenyl]carbamic Acid Ethyl Ester] | 123 | 51 | 39 | 409 | – |
| CCOC(=O)Nc1cccc(-c2csc(NC(=O)CCc3cc(C(=O)NO)no3)n2)c1 [Compound 5, N-[3-[2-[3-[3-(N-Hydroxycarbamoyl)isoxazol-5-yl]propionylamino]thiazol-4-yl]phenyl]carbamic Acid Ethyl Ester] | 82 | 32 | 80 | 333 | – |
| CC(C)(C)OC(=O)Nc1ccc(-c2cc(C(=O)NCCc3cc(C(=O)NO)no3)no2)cc1 [Compound 6, N-[4-[3-[N-[2-[3-(N-Hydroxycarbamoyl)isoxazol-5-yl]ethyl]carbamoyl]isoxazol-5-yl]phenyl]carbamic Acid tert-Butyl Ester] | – | 3800 | 2817 | – | IC50 (HDAC10; [1]): > 50 µM; selectivity for HDAC6 over all other isoforms (HDAC6; Table S1 in the supporting information (not available)): highly selective; IC50 (HDAC2; [2]): > 50 µM |
| CC(C)(C)OC(=O)Nc1cccc(-c2cc(C(=O)NCc3ccc(C(=O)NO)cc3)no2)c1 [Compound 14, N-[3-[3-[N-[4-(N-Hydroxycarbamoyl)benzyl]carbamoyl]isoxazol-5-yl]phenyl]carbamic Acid tert-Butyl Ester] | 4270 | 1230 | 694 | 2160 | selectivity over HDAC1 and HDAC3 (HDAC6): at least 400 fold; selectivity over HDAC2 and HDAC10 (HDAC6): more than 3 orders of magnitude |
| O=C(NO)c1ccc(CNC(=O)c2cc(Cn3c4ccccc4c4ccccc43)on2)cc1 [Compound 18, 5-(9H-Carbazol-9-ylmethyl)-N-[4-(hydroxycarbamoyl)benzyl]isoxazole-3-carboxamide] | 37000 | 798 | 825 | 2280 | – |
| O=C(NO)c1ccc(CNC(=O)c2cc(-c3ccc(NC(=O)C4CCCCC4)cc3)on2)cc1 [Compound 15, 5-[4-[(Cyclohexanecarbonyl)amino]phenyl]-N-[4-(N-hydroxycarbamoyl)benzyl]isoxazole-3-carboxamide] | 38 | 40 | 65 | 461 | – |
| CC(C)(C)OC(=O)Nc1cccc(-c2cc(C(=O)NCCc3cc(C(=O)NO)no3)no2)c1 [Compound 7] | – | – | – | – | IC50 (HDAC10; [1]): > 50 µM; IC50 (HDAC3; [3]): > 50 µM; IC50 (HDAC1; [4]): > 50 µM; IC50 (HDAC6; [5]): 0.0077 ± 0.0008 µM; IC50 (HDAC2; [2]): > 50 µM |
| O=C(NO)c1ccc(CNC(=O)c2cc(-c3cccc(NC(=O)C4CCCCC4)c3)on2)cc1 [Compound 16, 5-[3-[(Cyclohexanecarbonyl)amino]phenyl]-N-[4-(N-hydroxycarbamoyl)benzyl]isoxazole-3-carboxamide] | 73 | 257 | 82 | 1650 | – |
| O=C(NO)c1cc(Cn2c3ccccc3c3ccccc32)on1 [Compound 17, 5-(Carbazol-9-ylmethyl)isoxazole-3-carbohydroxamic Acid] | – | 29 | 26 | – | IC50 (HDAC10): > 50 µM; IC50 (HDAC3): 44 µM; IC50 (HDAC1): 38.7 µM; IC50 (HDAC6): 1.51 ± 0.065 µM; IC50 (HDAC2): > 50 µM |
| CC(C)(C)C(=O)Nc1cccc(-c2cc(C(=O)NCCc3cc(C(=O)NO)no3)no2)c1 [Compound 10, 5-[2-[[5-[3-[(2,2-Dimethylpropionyl)amino]phenyl]isoxazole-3-carbonyl]amino]ethyl]isoxazole-3-carbohydroxyamic Acid] | 1910 | – | – | – | IC50 (HDAC10; [1]): 40.1 µM; IC50 (HDAC3; [3]): > 50 µM; IC50 (HDAC1; [4]): > 50 µM; selectivity index (SI) (HDAC6; HDAC6 over the other isoforms tested): at least 1900; IC50 (HDAC6; [5]): 0.0212 ± 0.0009 µM; IC50 (HDAC2; [2]): > 50 µM |
| CC(C)(C)OC(=O)Nc1ccc(-c2cc(C(=O)NCc3ccc(C(=O)NO)cc3)no2)cc1 [Compound 13, N-[4-[3-[N-[4-(N-Hydroxycarbamoyl)benzyl]carbamoyl]isoxazol-5-yl]phenyl]carbamic Acid tert-Butyl Ester] | 9580 | 409 | 1320 | 5760 | selectivity over HDAC1 and HDAC3 (HDAC6): at least 400 fold; selectivity over HDAC2 and HDAC10 (HDAC6): more than 3 orders of magnitude |
| O=C(NO)c1cc(CCNC(=O)c2cc(-c3cccc(NC(=O)C4CCCCC4)c3)on2)on1 [Compound 11, 5-[3-[(Cyclohexanecarbonyl)amino]phenyl]-N-[2-[3-(N-hydroxycarbamoyl)isoxazol-5-yl]ethyl]isoxazole-3-carboxamide] | – | – | – | – | IC50 (HDAC10): > 50 µM; IC50 (HDAC3): > 50 µM; IC50 (HDAC1): > 50 µM; IC50 (HDAC2): > 50 µM |
| Nc1cccc(-c2cc(C(=O)NCCc3cc(C(=O)NO)no3)no2)c1 [Compound 9, 5-(3-Aminophenyl)-N-[2-[3-(N-hydroxycarbamoyl)isoxazol-5-yl]ethyl]isoxazole-3-carboxamide] | 315 | 105 | 398 | 140 | – |
